Assay: xn = mol fraction of the nth substance listed
Conditions: 101 kPa, Liquid, x1 = 0

Compound | binary diffusion coefficient (333.2 K) | binary diffusion coefficient (353.2 K) | binary diffusion coefficient (373.2 K) | binary diffusion coefficient (453.2 K) | binary diffusion coefficient (473.2 K) | binary diffusion coefficient (433.2 K) | binary diffusion coefficient (443.2 K) | binary diffusion coefficient (313.2 K) | binary diffusion coefficient (418.2 K) | binary diffusion coefficient (393.2 K) | binary diffusion coefficient (413.2 K) | binary diffusion coefficient (423.2 K) | binary diffusion coefficient (463.2 K)
c1ccc2nc3ccccc3cc2c1 [acridine] + CCCCCCCCCCCCCC | 1.27e-09 m2/s | 1.55e-09 m2/s | 2e-09 m2/s | 3.96e-09 m2/s | 5.08e-09 m2/s | – | – | – | – | 2.4e-09 m2/s | 2.93e-09 m2/s | 3.74e-09 m2/s | –
c1ccc2sccc2c1 [benzo[b]thiophene] + CCCCCCCCCCCCCC | 1.19e-09 m2/s | 1.65e-09 m2/s | 2.1e-09 m2/s | 4.77e-09 m2/s | – | – | – | – | – | 2.51e-09 m2/s | 3.19e-09 m2/s | 3.83e-09 m2/s | –
c1ccc2c(c1)sc1ccccc12 [dibenzothiophene] + CCCCCCCCCCCCCC | 1.06e-09 m2/s | 1.41e-09 m2/s | – | 3.96e-09 m2/s | – | 3.41e-09 m2/s | – | – | – | 2.13e-09 m2/s | 2.61e-09 m2/s | 3.14e-09 m2/s | 5.01e-09 m2/s

The next lines start with results.

binary diffusion coefficient (333.2 K) | binary diffusion coefficient (353.2 K) | binary diffusion coefficient (373.2 K) | binary diffusion coefficient (453.2 K) | binary diffusion coefficient (473.2 K) | binary diffusion coefficient (433.2 K) | binary diffusion coefficient (443.2 K) | binary diffusion coefficient (313.2 K) | binary diffusion coefficient (418.2 K) | Compound | binary diffusion coefficient (393.2 K) | binary diffusion coefficient (413.2 K) | binary diffusion coefficient (423.2 K) | binary diffusion coefficient (463.2 K)
9.4e-10 m2/s | 1.36e-09 m2/s | 1.38e-09 m2/s | 5.56e-09 m2/s | – | 3.43e-09 m2/s | 4.57e-09 m2/s | – | – | c1ccc2cc3ccccc3cc2c1 [anthracene] + CCCCCCCCCCCCCC | 2.03e-09 m2/s | – | – | –
1.42e-09 m2/s | 1.86e-09 m2/s | 2.28e-09 m2/s | 5.56e-09 m2/s | – | 4.64e-09 m2/s | – | 1.03e-09 m2/s | 3.69e-09 m2/s | c1ccc2ccccc2c1 [naphthalene] + CCCCCCCCCCCCCC | – | – | – | –

— the NIST ThermoML archive (doi:10.1021/je700535q)
